{"source": "patent US20230255976A1", "about": "“Novel Compounds for the Treatment, Alleviation or Prevention of Disorders Associated with Tau Aggregates” (AC Immune SA, priority 2018, published 2023)", "key": {"[1]": {"system": "human neuroblastoma cell line overexpressing full-length human Tau carrying the P301L mutation", "experiment": "Reduction of intracellular Tau aggregation (AlphaLISA)", "assay_type": "cell-based", "conditions": "compound at 5 μM, 24 h; aggregated Tau normalized to total Tau, relative to DMSO-treated cells", "description": "A human neuroblastoma cell line overexpressing the full-length form of human Tau carrying the P301 L mutation was cultured in complete medium [DMEM-F12 4.5 g/L Glutamax (Invitrogen), 15% FBS (Biochrom), 1% Peni/Strep (Invitrogen) supplemented with 2.5 μg/ml of G418 (Sigma-Aldrich) selection antibiotic]. The day before the experiment 5×10^5 cells/well were plated in a 6 well plate in 3 mL of complete medium. The next day, cells were incubated with DMSO or a compound of the present invention at 5 μM for additional 24 h at 37° C. […]\nPhosphorylated, aggregated, and total Tau were quantified by AlphaLisa using the following antibody pairs: • HT7-Acceptor beads+biotin (BT)-Tau13-Donor beads: Total Tau • HT7-Acceptor beads+biotin (BT)-HT7-Donor beads: Aggregated human Tau […]\nAfter incubation of this mixture at room temperature for 1 h, 25 μL of Streptavidin Donor beads (Perkin Elmer) at 25 μg/mL were added in the dark. Plates were analyzed after 30 min incubation using the EnSpire Alpha instrument and EnSpire Workstation version 3.00. Data for aggregated Tau were normalized to total Tau and then expressed as percentage of the DMSO-treated cells."}, "[2]": {"target": "T1, Tau K18 fragment aggregates (amino acids 244 to 372 of human Tau441) (Homo sapiens, UniProt P10636)", "T1 construct": "encompassing amino acids 244 to 372 of the longest isoform (2N4R) of human Tau441; host or cells: bacteria", "T1 sequence (P10636 561-689)": "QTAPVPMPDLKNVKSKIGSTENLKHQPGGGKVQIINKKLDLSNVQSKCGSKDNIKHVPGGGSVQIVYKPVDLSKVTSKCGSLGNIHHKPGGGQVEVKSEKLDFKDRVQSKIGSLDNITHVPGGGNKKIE", "experiment": "Tau K18 disaggregation assay by ThT", "assay_type": "biochemical", "conditions": "2 μM K18 aggregates, compounds 160 to 0.04 μM, 30 min RT, ThT fluorescence", "description": "Compounds were dissolved in anhydrous dimethyl sulfoxide (DMSO, Sigma-Aldrich) to reach a concentration of 10 mM. K18 aggregates and serial dilutions of compounds were mixed together in PBS (volume 50 μL) to a final concentration of 2 μM of K18 aggregates and from 160 to 0.04 μM of compounds. The mixture was incubated for 30 minutes at room temperature (RT), then 40 μL of this mixture were transferred into a black 384-well plate assay (Perkin-Elmer) and mixed with 10 μL of 100 μM ThT in 250 mM glycine (both from Sigma-Aldrich) in PBS. Fluorescence (relative fluorescence units; RFU) was measured in monoplicate or duplicate on a Tecan reader (excitation: 440 nm; emission: 485 nm). Percentage of K18 disaggregation was then calculated and half maximal effective concentration (EC50) was determined using GraphPad Prism version 5 (GraphPad Software) assuming a one-binding site fitting model."}}}
{"smiles": "c1ccc2c3c([nH]c2c1)CN(c1ccc(N2CCOCC2)nc1)CC3", "note": "[Example 44]", "values": [{"measurement": "% Reduction of intracellular Tau aggregation", "setting": "[1]", "value": "+++ (+++ % >50)"}]}
{"smiles": "Fc1ccc2[nH]c3c(c2c1)CC1CCC3N1c1ccc(N2CCOCC2)cn1", "note": "(centres unmarked) [Example 47]", "values": [{"measurement": "EC50", "setting": "[2]", "value": "10 to 25", "unit": "µM"}]}
